Values quoted from earlier work, collected in PubChem BioAssay AID1259409 (Chemical Carcinogenesis Research Information System (CCRIS), 2018).

Test system: rodent chemically induced tumor inhibition, incidence and multiplicity
Experiment: CCRIS tumor inhibitor studies

Q: For `CC1=C(/C=C/C(C)=C/C=C/C(C)=C/C(=O)O)C(C)(C)CCC1`, which “tumour outcome (control, treated, inhibition, significance)” value (Carcinogen: 7,12-DIMETHYLBENZ[A]ANTHRACENE, 57-97-6, Dose [Inhibitor]: 68 NMOL IN 0.2 ML ACETONE ONCE 1 HR BEFORE APPLICATION OF CARCINOGEN (STUDY DURATION: 21 WK), Route [Inhibitor]: DERMAL, Species: MOUSE, Strain/Sex: CD-1/FEMALE, Target Tissue: Type of Lesion: SKIN: PAPILLOMA, Dose [Carcinogen]: 0.2 UMOL IN 0.2 ML ACETONE ONCE, Promoter: 12-O-TETRADECANOYLPHORBOL-13-ACETATE, 16561-29-8) is on record?
A: Its value is 95%, 92%, 3%, not significant.

Q: What about the “tumour outcome (control, treated, inhibition, significance)” value (Carcinogen: 7,12-DIMETHYLBENZ[A]ANTHRACENE, 57-97-6, Dose [Inhibitor]: 170 NMOL IN 0.2 ML ACETONE 1 HR PRIOR TO EACH PROMOTER DOSE FOR 12 WK (STUDY DURATION: 14 WK), Route [Inhibitor]: DERMAL, Species: MOUSE, Strain/Sex: SENCAR/FEMALE, Target Tissue: Type of Lesion: SKIN: PAPILLOMA, Dose [Carcinogen]: 200 NMOL IN 0.2 ML ACETONE ONCE, Promoter: 12-O-TETRADECANOYLPHORBOL-13-ACETATE, 16561-29-8) of the same molecule?
A: Its value is 100%, 87%, 13%, not calculated.

Q: What about the “tumour outcome (control, treated, inhibition, significance)” value (Carcinogen: 7,12-DIMETHYLBENZ[A]ANTHRACENE, 57-97-6, Dose [Inhibitor]: 170 NMOL IN 0.2 ML ACETONE 1 HR PRIOR TO EACH PROMOTER DOSE FOR 20 WK (STUDY DURATION: 22 WK), Route [Inhibitor]: DERMAL, Species: MOUSE, Strain/Sex: CD-1/FEMALE, Target Tissue: Type of Lesion: SKIN: PAPILLOMA, Dose [Carcinogen]: 200 NMOL IN 0.2 ML ACETONE ONCE, Promoter: 12-O-TETRADECANOYLPHORBOL-13-ACETATE, 16561-29-8) of the same molecule?
A: The value was 94%, 63%, 33%, not calculated.

Q: And the “tumour outcome (control, treated, inhibition, significance)” value (Carcinogen: DIETHYLNITROSAMINE, 55-18-5, Dose [Inhibitor]: 0, 10000 IU/KG IN CORN OIL FOR DURATION OF STUDY BEGINNING 7 D PRIOR TO FIRST CARCINOGEN DOSE (STUDY DURATION: 6 MO), Route [Inhibitor]: GAVAGE, Species: RAT, Strain/Sex: BD6/FEMALE, Target Tissue: Type of Lesion: ESOPHAGUS: TUMOR, Dose [Carcinogen]: 80 MG/KG BW 1/WK FOR 8 WK, Promoter: NONE USED)?
A: Its value is 20%, 13%, 35%, not significant.

Q: And the “tumour outcome (control, treated, inhibition, significance)” value (Carcinogen: DIETHYLNITROSAMINE, 55-18-5, Dose [Inhibitor]: 0, 10000 IU/KG IN CORN OIL FOR DURATION OF STUDY BEGINNING 7 D PRIOR TO FIRST CARCINOGEN DOSE (STUDY DURATION: 6 MO), Route [Inhibitor]: GAVAGE, Species: RAT, Strain/Sex: BD6/FEMALE, Target Tissue: Type of Lesion: LIVER: TUMOR, Dose [Carcinogen]: 80 MG/KG BW 1/WK FOR 8 WK, Promoter: NONE USED)?
A: Its value is 83%, 91%, -10%, not significant.

Q: And the “tumour outcome (control, treated, inhibition, significance)” value (Carcinogen: DIETHYLNITROSAMINE, 55-18-5, Dose [Inhibitor]: 0, 20000 IU/KG IN CORN OIL FOR DURATION OF STUDY BEGINNING 7 D PRIOR TO FIRST CARCINOGEN DOSE (STUDY DURATION: 6 MO), Route [Inhibitor]: GAVAGE, Species: RAT, Strain/Sex: BD6/FEMALE, Target Tissue: Type of Lesion: ESOPHAGUS: TUMOR, Dose [Carcinogen]: 80 MG/KG BW 1/WK FOR 8 WK, Promoter: NONE USED)?
A: The value was 30%, 13%, 57%, not significant.

Q: What about the “tumour outcome (control, treated, inhibition, significance)” value (Carcinogen: DIETHYLNITROSAMINE, 55-18-5, Dose [Inhibitor]: 0, 20000 IU/KG IN CORN OIL FOR DURATION OF STUDY BEGINNING 7 D PRIOR TO FIRST CARCINOGEN DOSE (STUDY DURATION: 6 MO), Route [Inhibitor]: GAVAGE, Species: RAT, Strain/Sex: BD6/FEMALE, Target Tissue: Type of Lesion: LIVER: TUMOR, Dose [Carcinogen]: 80 MG/KG BW 1/WK FOR 8 WK, Promoter: NONE USED) of the same molecule?
A: The value was 85%, 93%, -9%, not significant.

Q: What about the “tumour outcome (control, treated, inhibition, significance)” value (Carcinogen: N-METHYL-N'-NITRO-N-NITROSOGUANIDINE, 70-25-7, Dose [Inhibitor]: 0, 0.75 MG/KG BW 1/2 D FOR 26 WK BEGINNING POST CARCINOGEN TREATMENT (STUDY DURATION: 52 WK), Route [Inhibitor]: SUBCUTANEOUS, Species: RAT, Strain/Sex: WISTAR/MALE, Target Tissue: Type of Lesion: STOMACH: ADENOCARCINOMA, Dose [Carcinogen]: 25 UG/ML IN DRINKING WATER FOR 25 WK, Promoter: SODIUM CHLORIDE, 7647-14-5) of the same molecule?
A: The value was 17/20 (85%), 8/20 (40%), 53% p<0.01.

Q: And the “tumour outcome (control, treated, inhibition, significance)” value (Carcinogen: N-METHYL-N'-NITRO-N-NITROSOGUANIDINE, 70-25-7, Dose [Inhibitor]: 0, 1.5 MG/KG BW 1/2 D FOR 26 WK BEGINNING POST CARCINOGEN TREATMENT (STUDY DURATION: 52 WK), Route [Inhibitor]: SUBCUTANEOUS, Species: RAT, Strain/Sex: WISTAR/MALE, Target Tissue: Type of Lesion: STOMACH: ADENOCARCINOMA, Dose [Carcinogen]: 25 UG/ML IN DRINKING WATER FOR 25 WK, Promoter: SODIUM CHLORIDE, 7647-14-5)?
A: The value was 17/20 (85%), 7/20 (35%), 59%, p<0.01.

Q: And the “tumour outcome (control, treated, inhibition, significance)” value (Carcinogen: N-NITROSO-N-METHYLUREA, 684-93-5, Dose [Inhibitor]: 0, 60 MG/KG OF DIET FOR 3 MO BEGINNING 1 WK POST CARCINOGEN DOSE (STUDY DURATION: 100 D), Route [Inhibitor]: ORAL, Species: RAT, Strain/Sex: SPRAGUE-DAWLEY/FEMALE, Target Tissue: Type of Lesion: MAMMARY GLAND: TUMOR, Dose [Carcinogen]: 50 MG/KG BW ONCE, Promoter: NONE USED)?
A: The value was 100%, 92%, 8%, not significant.

Q: What about the “tumour outcome (control, treated, inhibition, significance)” value (Carcinogen: N-NITROSO-N-METHYLUREA, 684-93-5, Dose [Inhibitor]: 0, 120 MG/KG OF DIET FOR 13 MO BEGINNING 1 WK POST CARCINOGEN DOSE (STUDY DURATION: 100 D), Route [Inhibitor]: ORAL, Species: RAT, Strain/Sex: SPRAGUE-DAWLEY/FEMALE, Target Tissue: Type of Lesion: MAMMARY GLAND: TUMOR, Dose [Carcinogen]: 50 MG/KG BW ONCE, Promoter: NONE USED) of the same molecule?
A: Its value is 100%, 83%, 17%, not significant.
